Where “and” joins values, the source holds several entries; their conditions need not be identical. Equal entries are not always repeated. Calls of active or inactive are those of the source.
Key:
[1] = molecular target: T1, High affinity choline transporter 1 (Homo sapiens, UniProt Q9GZV3); assay: CHT inhibitors, dose response, cell-based, 5-point CRC, membrane potential dye (AID 504840); type: functional
T1 sequence (Q9GZV3 whole entry): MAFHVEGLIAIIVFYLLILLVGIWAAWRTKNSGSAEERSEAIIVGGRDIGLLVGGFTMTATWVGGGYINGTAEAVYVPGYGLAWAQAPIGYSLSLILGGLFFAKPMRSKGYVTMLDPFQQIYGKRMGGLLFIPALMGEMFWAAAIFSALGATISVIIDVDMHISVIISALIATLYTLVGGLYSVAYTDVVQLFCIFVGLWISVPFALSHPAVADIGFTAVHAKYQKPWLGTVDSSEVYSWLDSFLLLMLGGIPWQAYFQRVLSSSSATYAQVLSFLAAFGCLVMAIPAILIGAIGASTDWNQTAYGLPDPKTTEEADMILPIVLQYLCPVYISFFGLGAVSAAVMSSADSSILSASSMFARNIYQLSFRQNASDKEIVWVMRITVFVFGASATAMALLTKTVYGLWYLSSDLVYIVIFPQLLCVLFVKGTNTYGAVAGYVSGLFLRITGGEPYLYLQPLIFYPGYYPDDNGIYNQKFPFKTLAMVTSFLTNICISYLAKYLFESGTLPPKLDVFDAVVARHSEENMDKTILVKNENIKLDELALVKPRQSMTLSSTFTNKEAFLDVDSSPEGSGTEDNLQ

[2] = molecular target: T1, High affinity choline transporter 1; assay: CHT inhibitors, dose response, cell-based, 10-point CRC, membrane potential dye (AID 588401); type: functional;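 further: membrane potential dye fluorescence of choline-evoked depolarization via CHT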
[3] = molecular target: T1, High affinity choline transporter 1; assay: inhibitors of CHT choline uptake, dose response, cell-based, 3H-choline uptake, CHT LV-AA trafficking mutant, CRC (AID 602208); type: functional
[4] = molecular target: Mitogen-activated protein kinase kinase kinase 20 (Homo sapiens, UniProt Q9NYL2); type: functional
[5] = molecular target: T2, Receptor-type tyrosine-protein kinase FLT3 (Homo sapiens, UniProt P36888); type: functional;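 further: FLT3 was tested as one member of a kinome-wide kinase panel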
T2 sequence (P36888 whole entry): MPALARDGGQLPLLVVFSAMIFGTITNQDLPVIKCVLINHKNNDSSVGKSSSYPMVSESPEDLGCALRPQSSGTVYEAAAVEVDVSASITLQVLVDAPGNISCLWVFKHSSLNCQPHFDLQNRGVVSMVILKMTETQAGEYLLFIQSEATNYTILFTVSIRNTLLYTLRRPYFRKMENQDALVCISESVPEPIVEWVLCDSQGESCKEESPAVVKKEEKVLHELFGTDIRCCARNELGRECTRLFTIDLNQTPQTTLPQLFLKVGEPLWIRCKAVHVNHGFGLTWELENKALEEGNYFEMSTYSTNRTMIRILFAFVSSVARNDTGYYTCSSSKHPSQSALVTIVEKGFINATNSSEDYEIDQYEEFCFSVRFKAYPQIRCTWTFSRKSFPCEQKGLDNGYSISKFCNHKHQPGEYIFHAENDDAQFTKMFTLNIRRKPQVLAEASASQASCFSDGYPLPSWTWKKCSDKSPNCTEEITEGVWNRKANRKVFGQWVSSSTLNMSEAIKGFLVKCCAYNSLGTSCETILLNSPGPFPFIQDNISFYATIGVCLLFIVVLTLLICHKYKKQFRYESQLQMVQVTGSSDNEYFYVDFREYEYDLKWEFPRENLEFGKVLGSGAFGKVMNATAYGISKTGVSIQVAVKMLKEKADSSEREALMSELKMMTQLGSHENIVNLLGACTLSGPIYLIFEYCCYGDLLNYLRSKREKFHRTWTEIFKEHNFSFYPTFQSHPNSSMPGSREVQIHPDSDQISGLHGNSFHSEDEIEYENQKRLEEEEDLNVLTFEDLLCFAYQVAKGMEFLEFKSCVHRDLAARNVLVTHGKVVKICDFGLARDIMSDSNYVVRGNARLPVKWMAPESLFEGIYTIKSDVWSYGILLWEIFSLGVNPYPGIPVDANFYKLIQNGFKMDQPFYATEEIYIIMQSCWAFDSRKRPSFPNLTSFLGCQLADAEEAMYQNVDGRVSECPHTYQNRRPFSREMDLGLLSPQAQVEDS

[6] = molecular target: Casein kinase I isoform delta (Homo sapiens, UniProt P48730); type: functional;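 further: measured as one member (CSNK1D) of a kinome panel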
Casein kinase I isoform delta, sequence (P48730 whole entry, canonical isoform): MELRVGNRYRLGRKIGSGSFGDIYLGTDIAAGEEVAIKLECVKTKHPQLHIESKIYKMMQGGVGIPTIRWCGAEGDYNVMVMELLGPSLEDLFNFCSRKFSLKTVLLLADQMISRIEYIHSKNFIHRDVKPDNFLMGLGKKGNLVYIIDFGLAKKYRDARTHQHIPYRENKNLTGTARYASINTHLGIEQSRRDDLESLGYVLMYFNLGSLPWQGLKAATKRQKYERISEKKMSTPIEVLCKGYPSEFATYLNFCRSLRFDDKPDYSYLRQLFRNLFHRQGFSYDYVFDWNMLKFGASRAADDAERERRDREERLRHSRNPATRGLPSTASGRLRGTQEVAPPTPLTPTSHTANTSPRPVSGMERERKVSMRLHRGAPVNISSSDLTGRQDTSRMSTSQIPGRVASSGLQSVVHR

Aurora kinase B = Aurora kinase B (Homo sapiens, UniProt Q96GD4); type: functional
[7] = molecular target: Mitogen-activated protein kinase kinase kinase kinase 5 (Homo sapiens, UniProt Q9Y4K4); type: functional;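 further: measured as one member of a kinome-spanning kinase panel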
Mitogen-activated protein kinase kinase kinase kinase 5, sequence (Q9Y4K4 whole entry): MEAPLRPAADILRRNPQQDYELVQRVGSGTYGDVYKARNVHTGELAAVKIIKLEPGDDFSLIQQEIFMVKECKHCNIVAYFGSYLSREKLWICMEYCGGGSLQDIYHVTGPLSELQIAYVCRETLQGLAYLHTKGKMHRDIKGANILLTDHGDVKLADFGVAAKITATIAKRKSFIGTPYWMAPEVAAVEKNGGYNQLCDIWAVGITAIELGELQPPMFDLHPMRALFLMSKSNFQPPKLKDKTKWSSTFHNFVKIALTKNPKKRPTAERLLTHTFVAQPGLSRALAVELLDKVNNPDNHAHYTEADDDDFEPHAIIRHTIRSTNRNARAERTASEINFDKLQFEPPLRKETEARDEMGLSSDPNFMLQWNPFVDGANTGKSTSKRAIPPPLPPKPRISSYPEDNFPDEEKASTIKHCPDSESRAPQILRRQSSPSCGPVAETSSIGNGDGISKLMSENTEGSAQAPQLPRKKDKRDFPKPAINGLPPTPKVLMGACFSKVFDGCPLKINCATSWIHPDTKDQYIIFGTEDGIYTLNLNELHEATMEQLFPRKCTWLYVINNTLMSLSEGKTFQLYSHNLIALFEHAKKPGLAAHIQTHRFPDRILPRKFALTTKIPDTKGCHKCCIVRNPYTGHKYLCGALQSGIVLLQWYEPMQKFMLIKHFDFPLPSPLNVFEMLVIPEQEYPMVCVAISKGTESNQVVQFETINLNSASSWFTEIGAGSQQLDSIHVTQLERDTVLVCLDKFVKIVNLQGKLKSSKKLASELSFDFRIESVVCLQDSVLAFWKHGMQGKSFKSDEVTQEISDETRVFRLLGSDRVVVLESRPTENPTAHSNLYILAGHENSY

[8] = molecular target: Dual specificity protein kinase CLK4 (Homo sapiens, UniProt Q9HAZ1); type: functional
Dual specificity protein kinase CLK4, sequence (Q9HAZ1 whole entry): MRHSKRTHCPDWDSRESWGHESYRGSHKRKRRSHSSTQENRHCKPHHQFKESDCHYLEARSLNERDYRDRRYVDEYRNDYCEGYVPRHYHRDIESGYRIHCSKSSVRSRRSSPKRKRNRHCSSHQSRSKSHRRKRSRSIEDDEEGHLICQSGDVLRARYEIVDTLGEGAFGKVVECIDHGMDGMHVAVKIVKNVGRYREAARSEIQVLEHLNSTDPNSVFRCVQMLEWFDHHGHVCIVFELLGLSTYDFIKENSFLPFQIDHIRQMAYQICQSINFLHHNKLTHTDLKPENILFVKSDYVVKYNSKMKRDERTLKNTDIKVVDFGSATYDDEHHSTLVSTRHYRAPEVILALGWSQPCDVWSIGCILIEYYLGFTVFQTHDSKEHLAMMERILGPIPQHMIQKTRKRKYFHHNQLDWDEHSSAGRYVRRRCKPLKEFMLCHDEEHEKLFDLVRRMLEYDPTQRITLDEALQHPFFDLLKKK

[9] = molecular target: Mitogen-activated protein kinase kinase kinase kinase 4 (Homo sapiens, UniProt O95819); type: functional
[10] = molecular target: T3, Glycogen synthase kinase-3 alpha (Homo sapiens, UniProt P49840); assay: Inhibition of Human GSK-3 alpha Activity Measured in Biochemical System Using Microfluidics - 2063-06_Inhibitor_Dose_DryPowder_Activity_Set2. [Related pubchem assays (depositor defined):AID2709]
T3 sequence (P49840 whole entry): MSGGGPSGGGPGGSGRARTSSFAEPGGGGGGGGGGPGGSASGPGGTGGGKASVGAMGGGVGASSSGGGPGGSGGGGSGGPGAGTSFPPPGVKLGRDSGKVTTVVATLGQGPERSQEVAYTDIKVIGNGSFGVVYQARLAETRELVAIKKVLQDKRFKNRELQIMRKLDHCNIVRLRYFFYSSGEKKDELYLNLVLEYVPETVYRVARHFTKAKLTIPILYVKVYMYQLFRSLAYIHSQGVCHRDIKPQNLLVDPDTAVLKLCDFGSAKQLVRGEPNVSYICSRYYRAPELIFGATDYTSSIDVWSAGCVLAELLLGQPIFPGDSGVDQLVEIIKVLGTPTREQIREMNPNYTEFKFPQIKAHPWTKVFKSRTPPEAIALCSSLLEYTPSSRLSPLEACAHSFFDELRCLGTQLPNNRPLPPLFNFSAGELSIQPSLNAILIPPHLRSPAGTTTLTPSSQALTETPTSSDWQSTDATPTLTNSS

[11] = molecular target: T4, Glycogen synthase kinase-3 beta (Homo sapiens, UniProt P49841); assay: Inhibition of Human GSK-3 beta Activity Measured in Biochemical System Using Microfluidics - 2063-05_Inhibitor_Dose_DryPowder_Activity_Set2. [Related pubchem assays (depositor defined):AID2709]
T4 sequence (P49841 whole entry): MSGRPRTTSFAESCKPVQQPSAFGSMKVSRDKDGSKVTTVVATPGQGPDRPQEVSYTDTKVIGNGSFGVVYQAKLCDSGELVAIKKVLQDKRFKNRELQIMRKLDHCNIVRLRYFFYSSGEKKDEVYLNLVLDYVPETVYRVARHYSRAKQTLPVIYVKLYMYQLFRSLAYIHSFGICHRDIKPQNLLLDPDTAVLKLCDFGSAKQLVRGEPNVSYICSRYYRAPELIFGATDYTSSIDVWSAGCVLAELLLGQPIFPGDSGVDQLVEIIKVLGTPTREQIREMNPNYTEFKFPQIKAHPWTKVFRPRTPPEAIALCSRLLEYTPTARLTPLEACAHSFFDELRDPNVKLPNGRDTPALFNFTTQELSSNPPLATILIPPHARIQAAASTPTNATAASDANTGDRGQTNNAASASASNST

[12] = molecular target: T5, Cyclin-dependent kinase 5/CDK5 activator 1 (Homo sapiens, UniProt Q00535); assay: CDK5-p25 kinase inhibitors, specificity check, dose response, selectivity assay for GSK-3 alpha inhibitor project, biochemical, microfluidic mobility shift, dry powder (AID 588430)
T5 sequence (Q00535 whole entry): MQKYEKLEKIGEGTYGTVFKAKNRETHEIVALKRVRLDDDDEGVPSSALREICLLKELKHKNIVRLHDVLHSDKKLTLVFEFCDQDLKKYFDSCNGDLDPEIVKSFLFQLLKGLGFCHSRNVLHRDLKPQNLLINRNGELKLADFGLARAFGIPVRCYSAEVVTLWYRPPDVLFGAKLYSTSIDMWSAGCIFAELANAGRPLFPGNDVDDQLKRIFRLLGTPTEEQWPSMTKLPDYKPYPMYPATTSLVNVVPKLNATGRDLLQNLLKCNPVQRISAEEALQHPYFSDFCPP
T5 sequence (Q15078 whole entry, further chain): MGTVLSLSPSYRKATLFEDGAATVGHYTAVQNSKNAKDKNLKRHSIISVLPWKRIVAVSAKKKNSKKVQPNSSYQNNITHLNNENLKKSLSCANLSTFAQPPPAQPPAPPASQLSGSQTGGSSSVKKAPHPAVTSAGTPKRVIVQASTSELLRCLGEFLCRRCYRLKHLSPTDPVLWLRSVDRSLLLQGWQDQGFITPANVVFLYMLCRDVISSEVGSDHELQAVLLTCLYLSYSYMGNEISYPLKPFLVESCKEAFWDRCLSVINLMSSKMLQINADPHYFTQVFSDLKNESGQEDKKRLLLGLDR

[13] = molecular target: T4, Glycogen synthase kinase-3 beta; assay: GSK3beta kinase inhibitors, dose response, biochemical, microfluidics, dry powder samples, set 2 (AID 623989); type: functional
[14] = molecular target: T3, Glycogen synthase kinase-3 alpha; assay: human GSK3 alpha kinase inhibition, dose response, selectivity assay for GSK3beta inhibitor project, biochemical, microfluidics, dry powder samples, set 2 (AID 623978); type: functional
[15] = molecular target: T5, Cyclin-dependent kinase 5/CDK5 activator 1; assay: CDK5-p25 kinase inhibition, dose response, selectivity assay for GSK3beta inhibitor project, biochemical, microfluidic mobility shift, dry powder, set 2 (AID 623979); type: functional
[16] = molecular target: Peroxisome proliferator-activated receptor gamma/Nuclear receptor corepressor 2 (Homo sapiens, UniProt P37231+Q9Y618); assay: Counterscreen for NR2E3 inverse agonists: TR-FRET-based biochemical high throughput dose response assay to identify inverse agonists of the interaction between peroxisome proliferator-activated receptor gamma (PPARg) and nuclear receptor co-repressor 2 (NCOR2).; type: functional
[17] = molecular target: Photoreceptor-specific nuclear receptor (Homo sapiens, UniProt Q9Y5X4); assay: NR2E3 inverse agonists, dose response, biochemical, TR-FRET (AID 463256); type: functional
Photoreceptor-specific nuclear receptor, sequence (Q9Y5X4 whole entry): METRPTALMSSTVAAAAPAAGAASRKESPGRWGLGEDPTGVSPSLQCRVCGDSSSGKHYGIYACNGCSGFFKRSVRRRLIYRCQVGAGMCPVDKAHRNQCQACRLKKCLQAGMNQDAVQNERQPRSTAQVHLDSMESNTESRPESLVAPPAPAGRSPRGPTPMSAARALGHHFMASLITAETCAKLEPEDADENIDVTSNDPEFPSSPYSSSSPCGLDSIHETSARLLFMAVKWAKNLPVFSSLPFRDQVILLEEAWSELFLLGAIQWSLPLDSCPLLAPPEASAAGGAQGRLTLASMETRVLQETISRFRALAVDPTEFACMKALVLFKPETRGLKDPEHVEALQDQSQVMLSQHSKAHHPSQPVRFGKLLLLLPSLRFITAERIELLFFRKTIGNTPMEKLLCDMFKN

CHO-K1 = assay: (§1) Counterscreen for antagonists of the orexin 1 receptor (OX1R; HCRTR1): Homogeneous time resolved fluorescence (HTRF)-based cell-based dose response assay to identify antagonists of the parental CHO-K1 cell line. [Related pubchem assays (depositor defined):AID434989, AID435008, AID463079, AID485270, AID492963, AID492964, AID492965, AID493232, AID504699, AID504701]; type: functional; settings: Cricetulus griseus
[18] = as §1, with “Fluorescence-based” for “Homogeneous time resolved fluorescence (HTRF)-based”, “cell-based high throughput” for “cell-based”, “CHO” for “CHO-K1”; type: functional
[19] = molecular target: T6, Orexin/Hypocretin receptor type 1 (Homo sapiens, UniProt O43613); assay: Homogeneous Time Resolved Fluorescence (HTRF)-based cell-based high throughput dose response assay for antagonists of the orexin 1 receptor (OX1R; HCRTR1). [Related pubchem assays (depositor defined):AID434989, AID435008, AID463079, AID485270, AID492963, AID492964, AID492965, AID493232, AID504717, AID504718]; type: functional
T6 sequence (O43613 whole entry): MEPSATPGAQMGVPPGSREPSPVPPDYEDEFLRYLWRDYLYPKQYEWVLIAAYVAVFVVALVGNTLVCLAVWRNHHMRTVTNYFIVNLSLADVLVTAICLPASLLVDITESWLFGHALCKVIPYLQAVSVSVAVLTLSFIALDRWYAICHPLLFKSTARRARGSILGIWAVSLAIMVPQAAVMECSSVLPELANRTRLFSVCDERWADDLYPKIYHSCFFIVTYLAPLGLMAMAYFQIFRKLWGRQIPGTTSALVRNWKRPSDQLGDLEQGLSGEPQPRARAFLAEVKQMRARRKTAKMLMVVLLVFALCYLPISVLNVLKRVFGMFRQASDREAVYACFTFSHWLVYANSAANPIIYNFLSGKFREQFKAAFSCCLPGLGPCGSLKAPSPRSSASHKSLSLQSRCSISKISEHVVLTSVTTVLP

[20] = molecular target: T6, Orexin/Hypocretin receptor type 1; assay: Fluorescence-based cell-based high throughput dose response assay for antagonists of the orexin 1 receptor (OX1R; HCRTR1). [Related pubchem assays (depositor defined):AID434989, AID435008, AID463079, AID485270, AID492963, AID492964, AID492965, AID493232, AID504717, AID504718]; type: functional
Orexin receptor type 2 [21] = molecular target: T7, Orexin receptor type 2 (Homo sapiens, UniProt O43614); assay: Counterscreen assay for antagonists of the orexin 1 receptor (OX1R; HCRTR1): Fluorescence-based cell-based dose response assay for antagonists of the orexin 2 receptor (OX2R; HCRTR2), run by assay provider.; type: functional
T7 sequence (O43614 whole entry): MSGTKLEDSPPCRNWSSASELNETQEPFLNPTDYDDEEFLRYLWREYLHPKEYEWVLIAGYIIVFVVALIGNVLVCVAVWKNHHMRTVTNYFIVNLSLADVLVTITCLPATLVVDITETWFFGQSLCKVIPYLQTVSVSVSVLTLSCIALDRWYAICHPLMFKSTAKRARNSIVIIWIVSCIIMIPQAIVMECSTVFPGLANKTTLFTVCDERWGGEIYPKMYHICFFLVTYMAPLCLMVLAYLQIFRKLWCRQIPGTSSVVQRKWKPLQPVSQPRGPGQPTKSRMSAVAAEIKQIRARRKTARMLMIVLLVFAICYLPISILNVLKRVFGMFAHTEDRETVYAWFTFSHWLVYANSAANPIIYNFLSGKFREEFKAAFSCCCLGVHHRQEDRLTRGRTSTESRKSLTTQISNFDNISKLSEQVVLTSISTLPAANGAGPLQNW

Orexin receptor type 2 [22] = molecular target: T7, Orexin receptor type 2; assay: Counterscreen assay for antagonists of the orexin 1 receptor (OX1R; HCRTR1): Homogeneous Time Resolved Fluorescence (HTRF)-based cell-based dose response assay for antagonists of the orexin 2 receptor (OX2R; HCRTR2), run by assay provider.; type: functional
[23] = molecular target: Latent membrane protein 1 (Human herpesvirus 4 (strain B95-8), UniProt P03230); assay: TES1-eGFP NF-kB reporter inhibition versus Tet-On dsRED, dose response, selectivity assay for LMP1 NF-kB inhibitor project, imaging, HEK293T, dual-color eGFP/dsRED, cherry-picks (AID 588398); type: functional, cell-based
Latent membrane protein 1, sequence (P03230 whole entry): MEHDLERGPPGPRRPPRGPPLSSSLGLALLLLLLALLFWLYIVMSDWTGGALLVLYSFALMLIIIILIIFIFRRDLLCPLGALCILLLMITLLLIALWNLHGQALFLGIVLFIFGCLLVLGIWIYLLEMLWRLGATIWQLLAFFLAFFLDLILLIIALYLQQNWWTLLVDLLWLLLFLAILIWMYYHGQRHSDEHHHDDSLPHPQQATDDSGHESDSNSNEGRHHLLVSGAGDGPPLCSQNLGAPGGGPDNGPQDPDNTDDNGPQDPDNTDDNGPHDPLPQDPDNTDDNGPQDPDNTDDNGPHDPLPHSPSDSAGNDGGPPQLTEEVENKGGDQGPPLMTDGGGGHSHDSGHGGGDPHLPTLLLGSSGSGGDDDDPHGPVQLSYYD

HEK293 = assay: inhibitors of LMP1-driven NF-kB reporter, dose response, cell-based, HEK293, luciferase, cherry-pick (AID 588343); type: functional; settings: Homo sapiens
[24] = molecular target: Apoptotic protease-activating factor 1 (Homo sapiens, UniProt O14727); type: functional
INS1 [25] = assay: caspase-3/7 inhibition in cytokine-treated INS-1E, dose response, beta-cell apoptosis inhibitor project, cell-based, caspase luminescence, dry powder (AID 488848); type: functional; settings: Rattus norvegicus
[26] = inhibitors of cytokine-induced nitrite release, dose response, cell-based, Griess absorbance, INS-1E, dry powder, set 3 (AID 488870); type: functional, Rattus norvegicus
INS1 [27] = assay: Primary beta islet insulin ELISA Measured in Cell-Based System Using Plate Reader - 2061-09_Inhibitor_Dose_DryPowder_Activity. [Related pubchem assays (depositor defined):AID435007]; type: functional; settings: Rattus norvegicus
[28] = Primary Beta Cell Apoptosis assay Measured in Cell-Based System Using Plate Reader - 2061-07_Inhibitor_Dose_DryPowder_Activity_Set2. [Related pubchem assays (depositor defined):AID435007]; type: functional; settings: Homo sapiens
INS1 [29] = assay: Glucose-induced Insulin secretion ELISA Measured in Cell-Based System Using Plate Reader - 2061-05_Inhibitor_Dose_DryPowder_Activity. [Related pubchem assays (depositor defined):AID435007]; type: functional; settings: Rattus norvegicus
INS1 [30] = assay: protection from cytokine-induced mitochondrial depolarization, dose response, cell-based, INS-1E, JC-1 fluorescence ratio, dry powder (AID 488931); type: functional; settings: Rattus norvegicus

## CCCN1CCC(Oc2cccc(C(=O)NCCc3ccccc3)c2)CC1
[1]
  IC50: 10 µM (active)
[2]
  IC50: 4.22 µM (active)
[3]
  IC50: 3.76 µM (active)

## c1cncc(Nc2ncc(-c3ccncn3)c(-c3ccco3)n2)c1
[4]
  Ki: 5.01 µM (active)
[5]
  Ki: 1.26 µM (active)
[6]
  Ki: 2 µM (active)
Aurora kinase B
  Ki: 2.51 µM (active)
[7]
  Ki: 3.98 µM (active)
[8]
  Ki: 3.16 µM (active)
[9]
  Ki: 6.31 µM (active)

## O=C1Nc2ccc3ncsc3c2/C1=C/Nc1ccc(S(=O)(=O)Nc2ccccn2)cc1
[10]
  AC50: 144 nM (active) and 206 nM (active)
[11]
  AC50: 12.4 nM (active) and < 16 nM (active)
[12]
  AC50: < 10 nM (active) and < 16 nM (active)
[13]
  AC50: 11.3 nM (active) and < 30 nM (active)
[14]
  AC50: 121 nM (active) and 281 nM (active)
[15]
  AC50: < 0.023 µM (active)

## O=C(CSc1ccc(-c2cccs2)nn1)c1cccs1
[16]
  IC50: 9.5 µM (active)
[17]
  IC50: 8.97 µM (active)
CHO-K1
  IC50: > 66.2 µM (inactive)
[18]
  IC50: > 49.8 µM (inactive)
[19]
  IC50: 2.28 µM (active)
[20]
  IC50: > 0.614 µM (active)
Orexin receptor type 2 [21]
  IC50: > 88.8 µM (inactive)
Orexin receptor type 2 [22]
  IC50: > 50 µM (inactive)

## COc1ccccc1NC(=O)Cn1nnc(-c2ccccc2NS(=O)(=O)c2ccccc2)n1
[23]
  AC50: 87 µM (active)

## CCN(c1ccccc1)S(=O)(=O)c1ccc(Cl)c(NC(=O)Nc2ccc(Cl)cc2C#N)c1
HEK293
  AC50: 4.55 µM (active)
[24]
  IC50: 8.98 µM (active)

## C[C@@H]1CN([C@@H](C)CO)C(=O)c2cccc(NC(=O)Nc3cccc4ccccc34)c2O[C@H]1CN(C)S(=O)(=O)c1ccc2c(c1)OCCO2
INS1 [25]
  AC50: 2.22 µM (active)
[26]
  AC50: 33.7 µM (active)
[26]; Rattus norvegicus
  AC50: 57.6 µM (active)
INS1 [27]
  AC50: < 0.5 µM (active)
[28]
  AC50: 6.7 µM (active)
INS1 [29]
  AC50: 4.79 µM (active)
INS1 [30]
  AC50: 83.8 µM (active)

Reference: ChEMBL document CHEMBL1201862, “PubChem BioAssay data set” (2004)
